# Reference: paper PMC7504360 (International Journal of Molecular Sciences, 2020)
# Square brackets hold non-standard residues; d marks the D form. Peptide text beside a SMILES is read from it.
# Key:
# all bacterial strains = experiment: Mean MIC over all bacterial strains (GM); type: cell-based; conditions: mean MIC of all bacterial strains of Table 2
# Experimental: Briefly, the microplates were inoculated with two-fold serial dilutions of each peptides in Mueller–Hinton (MH) media and then seeded with log-phase culture of aforementioned bacterial suspensions (2 × 10^5 CFU/mL). The microplates were incubated for 16 h at 37 °C, and absorbance was read at 600 nm using microplate reader SpectraMAX (Molecular Devices, San Jose, CA, USA).
# [1] = LPS neutralization, limulus amebocyte lysate (LAL) assay; type: biochemical, Escherichia coli O111:B4; conditions: 50 μM peptide, 20 ng/mL LPS, 30 min at 37 °C, LAL chromogenic kit, 405 nm; triplicate
# Experimental: The LPS-neutralizing activity of all peptides was determined using the Pierce LAL chromogenic endotoxin quantitation kit (ThermoFisher Scientific, MA, USA). All peptides including standard (Polymixin B) at varying concentrations (3.12, 6.25, 12.5, 25, and 50 μM in endotoxin-free water) were allowed to bind with 20 ng/mL of LPS in a 96-well plate for 30 min at 37 °C. To this, an equal volume (10 μL) of LAL reagent was added and incubated for 10 min at 37 °C and then 20μL of LAL chromogenic substrate was added. After 15 min incubation at 37 °C, the reaction was stopped by 25% acetic acid and the reduction in yellow color formation due to the substrate was measured at 405 nm on an absorbance microplate reader. The experiment was conducted in triplicate, and the changes in absorbance due to peptide-LPS interaction are indicated as percent LPS neutralization.
# [2] = system: sheep red blood cells (sRBCs); experiment: Hemolytic activity; type: cell-based; conditions: 100 μM peptide, 4% (v/v) sRBCs in PBS, 1 h at 37 °C, absorbance 405 nm; three measurements averaged
# Experimental: The hemolytic activity of all Pro-peptides were tested against sheep red blood cells (sRBCs) as described in previous reports. Fresh sRBCs were washed three times with phosphate-buffered saline (PBS) followed by centrifugation for 5 min at 2500 rpm at 4 °C. Peptides (0.2 to 100 μM) in PBS were incubated with 4% (v/v) sRBCs for 1 h at 37 °C. The contents were then centrifuged for 5 min at 1000 × g. The absorbance of the supernatant at 405 nm was used as a measure of hemolysis, and three times independent measurements were averaged. As a control, 100% hemolysis was obtained by treating sRBCs with melittin.
# MAPK and NF-κB = experiment: Immunoblot of MAPK (JNK, ERK) phosphorylation and NF-κB nuclear translocation; type: cell-based, mouse; conditions: 20 μM peptide, LPS 50 ng/mL, RAW264.7 cells
# Experimental: The protein content of all experimental groups of RAW264.7 cells in triplicate were extracted using radio immunoprecipitation buffer (RIPA) containing protease phosphatase inhibitor. The supernatant was collected by centrifugation (12,000× g) at 4 °C for 20 min and stored at −80 °C until further use. Similarly, cytoplasmic and nuclear fractionation was extracted using an NE-PER Nuclear and Cytoplasmic Extraction Reagents kit (ThermoFisher Scientific, MA, USA), according to the manufacturer’s protocol. Protein contents were quantified using a bicinchoninic acid (BCA) protein assay kit (Thermo Fisher Scientific Inc., MA, USA) and 30 μg (v/v) was electrophoresed by SDS-PAGE using a 10% (w/v) polyacrylamide resolving gel, electro-transferred to a PVDF membrane, and then blocked using 5% (w/v) non-fat milk. The membranes were incubated with primary antibodies (1:1000 dilution) at 4 °C overnight, followed by incubation with their respective secondary antibody for 1 h at room temperature. The antigen-antibody complexes were examined using the WestGlow^TM Chemiluminescent Substrate (Biomax Co., Ltd, Seoul, South Korea) under iBright™ CL1000 Imaging System (Thermo Fisher Scientific Inc., MA, USA). The densitometric analysis of protein signals were quantified using the Image J software (Version 1.52, National Institutes of Health, MD, USA).
# ICR mice = experiment: Cytotoxicity in vivo (serum AST, ALT, BUN); parameters: species or system mouse; conditions: single intraperitoneal dose 1 mg/kg and 5 mg/kg, 24 h, 5 mice/group
# Experimental: A preliminary toxicity study was conducted to determine the cytotoxic effect of Pro10-1 and Pro10-1D on ICR mice. Four-week-old mice (n = 5) were injected intraperitoneally with peptides (1 mg/Kg and 5 mg/Kg, respectively) for 24 h. After treatment, blood was withdrawn and serum was collected and then subjected to AST, ALT, and BUN analyses.
# [3] = system: LPS-stimulated RAW264.7 cells; experiment: Nitrite (NO) production, Griess assay; type: cell-based, mouse; conditions: 25 μM, 1 h pretreatment, LPS 20 ng/mL for 16 h
# Experimental: The presence of nitrite in culture media strongly validates the indication of NO production which was assessed by Griess assay. Briefly, RAW264.7 cell (1 × 10^5) were seeded in s 96-well plate in triplicate. Peptides (1, 5, 25, and 50 μM) were pretreated 1 h and then stimulated with 20 ng/mL of LPS purified from E. coli O111:B4 (Sigma-Aldrich, St. Louis, MO, USA) for 16 h. After incubation, equal volumes of culture media and Griess reagent were added and color change was read at 540 nm. The concentration of nitrite content was assessed using a standard curve of sodium nitrite. In addition, release of inflammatory cytokines including TNF-α and IL-6 in the culture media was quantified using an enzyme-linked immunosorbent assays kit (ELISA; R&D Systems, Minneapolis, MN, USA) and the assay was performed according to the kit protocol. The assay was conducted in triplicate, and the concentrations of TNF-α and IL-6 were evaluated by measuring the absorbance at 450 nm using a microplate reader.
compound,measurement,setting,value
CC[C@@H](C)[C@@H](NC(=O)[C@@H](C)NC(=O)[C@@H](CC(C)C)NC(=O)[C@@H](Cc1c[nH]c2ccccc12)NC(=O)[C@@H](CC(C)C)NC(=O)[C@@H](CCCNC(=N)N)NC(=O)[C@H](N)CCCNC(=N)N)C(=O)N[C@H](Cc1c[nH]c2ccccc12)C(=O)N[C@H](CCCNC(=N)N)C(=O)N[C@H](CCCNC(=N)N)C(N)=O [Pro10-1D] (H-[dR][dR][dL][dW][dL][dA][dI][dW][dR][dR]-NH2; N-terminus assumed),GM (geometric mean of MIC values of all bacterial strains),all bacterial strains,4.86 µM
same,inhibition of the activation of LPS (LPS neutralization),[1],58.45%
same,hemolysis,[2],no hemolytic activity
same,MAPK and NF-κB proteins,MAPK and NF-κB,downregulated
same,"AST, ALT, and BUN elevation in serum",ICR mice,did not observe any clinical significance
same,inhibition of LPS-induced NO (nitrite) level,[3],effective inhibition
